These are literature values, as cited in patent publication US20050182030A1, “Liquid injectable formulation of disodium pamidronate” (American Pharmaceutical Partners, Inc., priority 2001, published 2005).

The conditions of data set [1]: in vivo.
For data set [2] the following is noted: liquid formulation.
For data set [3] the following is noted: approximately normal ambient conditions.

Consider `NCCC(O)(P(=O)([O-])O)P(=O)([O-])O.[Na+].[Na+]` [pamidronate, 3-amino-1-hydroxypropane-1,1-diphosphonate disodium], for which, in data set [1], the “Absorption from the gastrointestinal system” value is listed as “poor absorption”. For the same molecule, the “Stability during long-term storage” value in data set [2] was “unstable/reactive”.

As for `NCCC(O)(P(=O)(O)O)P(=O)(O)O` [pamidronic acid], the Solubility in water entry is recorded as “not soluble in water”.

For `NCCC(O)(P(=O)([O-])O)P(=O)([O-])O.O.O.O.O.O.[Na+].[Na+]` [pentahydrate, pamidronate disodium pentahydrate], in data set [3], the Stability to storage result is recorded as “stable to storage”.
